Laboratory results as given in patent US20250282830A1, “ANTI-VIRAL PEPTIDE COMPOSITIONS AND METHODS TO IMPROVE BIOLOGICAL ACTIVITY THEREOF” (priority 2021, published 2025).
pIC50: −log10 of the molar value.

Assays:
[1] = Pharmacokinetic characterization; assay type: in vivo, BALB/c mice; settings: mice
Experimental: Male BALB/c mice (InVivos) aged 8-9 weeks were used during the pharmacokinetic characterization experiments. In brief, mice were anaesthetized by isoflurane. AH-D peptide solution (25 mg kg^−1) was then administered by the intravenous (i.v.) route (tail vein). Blood samples were taken by cardiac puncture under isoflurane anaesthesia at regular time points after injection (eight time points per compound). The administered dose was maintained at 5 ml kg^−1. Selected organs were collected after euthanasia and were stored at −80° C. until bioanalysis. Blood samples were mixed with deionized water while tissue samples were homogenized in deionized water before extraction. The samples were then treated with phosphoric acid (5 μl), followed by acetonitrile (25 μl) that contained 15 ng ml^−1 imipramine internal standard, 5% ammonium hydroxide (25 μl), deionized water (100 μl) and 5% Tween-20 (20 μl), before vortexing. The processed samples were then added to pre-activated Strata-X Solid Phase Extraction cartridges (30 mg per 1 ml; Phenomenex), and washed with 500 μl of deionized water, followed by elution in 75/25 acetonitrile/methanol with 1% formic acid. […] The blood and tissue samples were then analysed using a validated bio-analytical, ultra-performance liquid chromatography tandem mass spectrometry method. […]

[2] = Blood-to-brain influx assessment (BBB transport); assay type: in vivo, ICR-CD-1 mice; settings: mice
Experimental: Female, Institute for Cancer Research, Caesarean Derived-1 (ICR-CD-1) mice (7 to 10 weeks old; Envigo) were used to assess the in vivo blood-brain barrier (BBB) transport properties of AH-D peptide. The BBB permeability of AH-D was evaluated according to multiple time regression (MTR) analysis. In brief, mice were anesthetized by injecting 40% urethane intraperitoneally. Approximately 200 μl of AH-D peptide solution (10 mg kg^−1) was injected into the jugular internalis vein, then blood samples were collected from the carotid artery at selected time points after injection (minimum five time points per compound). Immediately after blood collection, the mice were euthanized by decapitation. The collected blood samples were centrifuged at 10,000 g for 15 min at 21° C. and the brains were isolated. The brain and the serum of each mouse were then analysed using a validated bio-analytical, ultrahigh-performance liquid chromatography tandem mass spectrometry method. Modelling of the data was performed according to the linear Gjedde-Patlak equation, giving the influx rate constant Kin (unidirectional clearance) of AH-D peptide. The molar concentration in the brain was also calculated by converting the mass of peptide per mass of brain tissue into the mass of peptide per volume of brain tissue by assuming the brain density to be 1.04 g ml^−1. […]

DENV-1 = test: Plaque reduction neutralization assay, DENV-1; assay type: cell-based, Dengue virus serotype 1; settings: Vero cells; virus pre-incubated with peptide 1 h at 37° C.; read-out: DENV-1 PRNT50
Experimental: (§1) Vero cells were seeded at 1×10^5 cells per well and incubated overnight. Twofold serial dilutions of peptide were incubated with 200-300 p.f.u. of virus for 1 h at 37° C. Cells were infected with the virus-peptide mixture for 1 h at 37° C. The inoculum was removed and 0.8% (wt/vol) methylcellulose in medium supplemented with 1% FBS was added. After 3-5 days incubation, plates were fixed and analysed for plaques by immunostaining (DENV). For immunostaining, the cells were fixed, followed by incubation with 4G2, a mouse anti-DENV E protein monoclonal antibody (1:2,000 dilution), for 16-20 h. After addition of a secondary antibody, goat anti-mouse IgG (H+L)-HRP conjugate (1:2,000 dilution), the TrueBlue peroxidase substrate (KPL) was added and the optical density was measured at a wavelength of 450 nm. For crystal violet staining, cells were fixed with fixing solution (5% glutaric dialdehyde in Dulbecco's PBS) followed by staining with 0.1% crystal violet in fixing solution. The IC50 value was calculated by comparing the relative number of plaques in peptide-treated samples to virus-only samples using a four-parameter logistic curve fit.

DENV-2 = test: Plaque reduction neutralization assay, DENV-2; assay type: cell-based, Dengue virus serotype 2; settings: Vero cells; virus pre-incubated with peptide 1 h at 37° C.; read-out: DENV-2 PRNT50
Experimental: as §1

DENV-3 = test: Plaque reduction neutralization assay, DENV-3; assay type: cell-based, Dengue virus serotype 3; settings: Vero cells; virus pre-incubated with peptide 1 h at 37° C.; read-out: DENV-3 PRNT50
Experimental: as §1

DENV-4 = test: Plaque reduction neutralization assay, DENV-4; assay type: cell-based, Dengue virus serotype 4; settings: Vero cells; virus pre-incubated with peptide 1 h at 37° C.; read-out: DENV-4 PRNT50
Experimental: as §1

[3] = Time-lapse fluorescence microscopy imaging of peptide-induced vesicle rupture; settings: small and large tethered vesicles
Experimental: Highly parallel measurements of peptide-induced liposome rupture were conducted by time-lapsed epifluorescence microscopy imaging. An Eclipse Ti-E inverted microscope (Nikon) with a high-pressure mercury lamp, a CFI Plan Apochromat TIRF×60 oil-immersion objective (NA 1.49; Nikon) and an Andor iXon3 897 EMCCD camera (Andor Technology), was utilized for measurements. The samples were illuminated with a mercury lamp (Intenslight C-HGFIE) using a TRITC filter set. Briefly, glass coverslips were assembled into a microfluidic flow cell, and coated with a thin layer of PLL-g-PEG(-biotin), followed by tethering of 0.025 μg ml^−1 liposomes via biotin-neutravidin coupling. Peptide was then added at a volumetric rate of 100 μl min^−1, and micrographs were recorded every 5-30 s depending on the particular experiment. The initial time was defined by when the peptide solution entered the channel inlet. Data processing and analysis were conducted using ImageJ (National Institutes of Health) and Python(x,y) software packages. The diameter of individual liposomes was estimated based on fluorescence intensity values. […]
Using time-lapse fluorescence microscopy imaging, we further investigated the interactions of different versions of Peptides 2 and 4 with tethered vesicles at the single-vesicle level and saw different degrees of vesicle rupture in terms of total extent and speed (FIG. 14).

| Compound | Bioavailability [1] | Circulation half-time ([1]; 25 mg kg−1 i.v.) | Blood brain barrier (BBB) crossing [2] | Blood brain barrier (BBB) crossing ([2]; listed as D-amino acid version of peptide 2) | pIC50 (DENV-1) | pIC50 (DENV-2) | pIC50 (DENV-3) | pIC50 (DENV-4) | Dependence of vesicle rupture on vesicle size (membrane-curvature sensing), single-vesicle analysis [3] |
| --- | --- | --- | --- | --- | --- | --- | --- | --- | --- |
| CC[C@@H](C)[C@@H](NC(=O)[C@@H](Cc1c[nH]c2ccccc12)NC(=O)[C@@H](CC(=O)O)NC(=O)[C@@H](Cc1c[nH]c2ccccc12)NC(=O)[C@H](NC(=O)[C@@H](CC(=O)O)NC(=O)[C@@H](CCCNC(=N)N)NC(=O)[C@@H](CC(C)C)NC(=O)[C@@H](Cc1c[nH]c2ccccc12)NC(=O)[C@@H](CO)NC(=O)CNC(=O)[C@H](N)CO)C(C)C)C(=O)N[C@H](CS)C(=O)N[C@@H](C(=O)N[C@@H](C(=O)N[C@H](CC(C)C)C(=O)N[C@@H](C(=O)N[C@H](CC(=O)O)C(=O)N[C@H](Cc1ccccc1)C(=O)N[C@H](CCCCN)C(=O)N[C@@H](C(=O)N[C@H](Cc1c[nH]c2ccccc12)C(=O)N[C@H](CC(C)C)C(=O)N[C@H](CCC(N)=O)C(=O)N[C@H](CO)C(=O)N[C@H](CCCCN)C(=O)N[C@H](CC(C)C)C(=O)O)[C@H](C)O)[C@H](C)O)C(C)C)[C@H](C)O [AH-D peptide] | high bioavailability | relatively long circulation half-time | able to cross the blood brain barrier | BBB-crossing activity to achieve therapeutic concentrations in the brain | – | – | – | – | – |
| SGSWLRDIWDWICEVLSDFKTWLKAKL [Peptide O1O] | – | – | – | – | 6.88 | 6.62 | 6.76 | 6.54 | – |
| SGSWLRDIWEWVCSILTDFKNWLSAKL [Peptide N4N] | – | – | – | – | 6.55 | 5.87 | 5.41 | 6.01 | – |
| SGSWLRDIWEWVCSILTDFKNWLSAKL [Peptide N4O] | – | – | – | – | 6.56 | 6.25 | 5.55 | 6.48 | – |
| SGSWLRDIWEWVCSILTDFKNWLSAKL [Peptide O4O] | – | – | – | – | 6.44 | 5.92 | 5.66 | 5.81 | – |
| SGSWLRDVWDWICTVLTDFKTWLQSKL [Peptide N2N] | – | – | – | – | 6.94 | 6.54 | 6.36 | 6.77 | have membrane-curvature sensing mechanisms |
| SGSWLRDVWDWICTVLTDFKTWLQSKL [Peptide N2O] | – | – | – | – | 6.84 | 6.42 | 6.18 | 6.57 | ruptured vesicles independently of vesicle size |
| SGSWLRDVWDWVCTILTDFKNWLTSKL [Peptide N3N] | – | – | – | – | 6.92 | 6.41 | 6.03 | 6.86 | – |
| SGSWLRDVWDWVCTILTDFKNWLTSKL [Peptide N3O] | – | – | – | – | 6.74 | 6.51 | 5.99 | 6.54 | – |
| SGSWLRDVWDWVCTILTDFKNWLTSKL [Peptide O3O] | – | – | – | – | 6.83 | 6.53 | 6.62 | 6.57 | – |
